# Assay results reported in patent US20140234350A1, “OVARIAN CANCER VACCINES AND VACCINATION METHODS” (Cedars-Sinai Medical Center, priority 2013, published 2014).
# Test system: antigen-specific CTLs (CD8+ T cells) against T2 cells pulsed with CD133 HLA-A2 peptides
# Experiment: IFN-γ ELISPOT assay of antigen-specific T cell response
# Type: cell-based, human
# Conditions: peptide-induced CTLs co-cultured with T2 cells pulsed with 10 μg/ml of peptides for 20 hours, compared with T2 control (no peptides); FIG. 3
# Experimental: To test this hypothesis, effector CD8^+ T cells were isolated and co-cultured with HLA-A2+ DC pulsed with CD133 peptides to induce antigen-specific CTLs. Antigens-specific T cell responses were evaluated by an IFN-γ ELISPOT assay.
# Human monocyte-derived DC was generated using previously described methods. Briefly, monocytes were isolated from PBMC by magnetic immunoselection using EasySep human monocyte enrichment kit (Stem Cell Technologies) in accordance with the manufacturer's instructions and then cultured at […] in 20 ml of GMP CellGenix DC serum-free medium (Cat#20801-0500, Cellgenix) supplemented with 1000 unit/ml of recombinant human GM-CSF (Cat#AF-300-03, Peprotech, Inc) and recombinant human IL-4(Cat# AF-200-04, Peprotech, Inc). Cells were harvested after 3 or 6 days of culture. The DCs were washed and plated in 6-well plates at a concentration of 5×10^6 cells/well IFN-γ (1000 unit/ml) and monophosphoryl lipid A (MPLA, 20-50 μg/ml) was added into the wells to mature the DC for 24 hr or 48 hrs. Prior to some assays, DC was frozen and stored into liquid nitrogen.
# In order to evaluate antigen-specific immune responses, CD8^+ T cells were isolated from fresh or frozen apheresis by positive selection using Dynabeads® CD8 Positive Isolation Kit (Life Technologies, Grand Island, N.Y.) and co-cultured with autologous mDC for four weeks. DCs were added weekly. Briefly, mDC was pulsed with synthetic peptides ([…]) for 6-8 hours at 37° C., and then treated with 20 μg/ml Mitomycin C (Sigma-Aldrich, St. Louis, Mo.) for 25 min at 37° C. and 5% CO2. […]
# Antigen-specific immune responses were evaluated by the IFN-γ Elispot kit (BD Biosciences) following previously described methods. […] The colored spots, representing cytokine-producing cells, were counted under a dissecting microscope. The results were evaluated by an automated ELISPOT reader system using KS ELISPOT 4.3 software.
row,Sequence,antigen-specific T cell response (IFN-γ ELISPOT)
1,"FLLPALIFAV (listed as Homo sapiens) [CD133p804, CD133 HLA-A2 peptide, position 804-813]",can efficiently recognize T2 pulsed with these antigens and boost the T cell immune response
2,"ILSAFSVYV (listed as Homo sapiens) [CD133p405, CD133 HLA-A2 peptide, position 405-413]",can efficiently recognize T2 pulsed with these antigens and boost the T cell immune response
3,"YLQWIEFSI (listed as Homo sapiens) [CD133p753, CD133 HLA-A2 peptide]",can efficiently recognize T2 pulsed with these antigens and boost the T cell immune response
